Key:
Type in all cases: cell-based
[1] = biological target: endogenous IKZF3 in Jurkat cells (Homo sapiens, UniProt Q96SW2+Q9UKT9); test: Immunoblotting of endogenous IKZF3; settings: for endogenous IKZF3 level relative to DMSO control (Western blot): 1 μM or 10 μM, untransduced Jurkat cells; for ability to degrade endogenous IKZF3 (Western blot): even at 10 uM
Experimental: Jurkat cells were added to T25 flasks (Falcon) at 2×10^6 cells per flask and were incubated with compounds for 18 hours at 37° C. and 5% CO2. Cells were lysed in buffer containing 9 M urea (Sigma), 75 mM Tris-HCl (Sigma), 0.15 M β-mercaptoethanol (Merck) and 10× diluted protease inhibitor cocktail (Merck). Cells lysates were sonicated for 10 seconds 3 times, centrifuged at 13000 rpm for 10 minutes at 4° C. and the supernatants were transferred into fresh tubes. Protein concentrations were measured using a Pierce BCA Protein Assay Kit (Thermo). Proteins were boiled in Laemmli sample buffer (Bio-Rad) for 5 minutes at 100° C. and separated by SDS-PAGE (7.5% Mini-PROTEAN TGX gels, Bio-Rad) and compared to the PageRuler Prestained Protein Ladder (Thermo). Semi-dry blotting was done on a Trans-Blot Turbo Transfer System (Bio-Rad) with the Trans-Blot Turbo RTA Mini 0.2 μm PVDF Transfer Kit (Bio-Rad) using the default mixed molecular weight mode. Membranes were blocked in 5% non-fat dry milk (Bio Rad) in TBS-T. Primary IKZF3 (D1C1E, Cell Signaling Technology Europe), eGFP (F56-6A1.2.3, Thermo) and vinculin (E1E9V, Cell Signaling Technology Europe and sc-25336, Santa Cruz Biotechnologies) antibodies were diluted 1000×, 500× and 50× respectively in 5% non-fat dry milk in TBS-T. Membranes were incubated with primary antibodies overnight at 4° C., washed with TBS-T 3 times, incubated with HRP conjugated secondary antibodies (Promega) for 1 hour at room temperature, washed with TBS-T 3 times and imaged with Clarity Western ECL substrate (Bio-Rad). Membranes were scanned with a Bio-Rad ChemiDoc XRS+ Imaging System (Bio-Rad) and signal intensities were quantified using Image Lab software (Bio Rad). Band densitometry was assessed, normalized to vinculin bands, and reported as percentage of the DMSO control lane.

[2] = biological target: IKZF3 130-189aa Q147W N149E Q150I (WEIS) ZF-GFP (Homo sapiens, UniProt Q96SW2+Q9UKT9, N149E/Q147W/Q150I); test: GFP degradation flow cytometry assay, WEIS mutant ZF-eGFP
Sequence of IKZF3 130-189aa Q147W N149E Q150I (WEIS) ZF-GFP (Q9UKT9 130-189 Q147W/N149E/Q150I): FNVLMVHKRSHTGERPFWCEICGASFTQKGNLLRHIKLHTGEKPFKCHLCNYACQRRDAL
Sequence of IKZF3 130-189aa Q147W N149E Q150I (WEIS) ZF-GFP (Q96SW2 whole entry): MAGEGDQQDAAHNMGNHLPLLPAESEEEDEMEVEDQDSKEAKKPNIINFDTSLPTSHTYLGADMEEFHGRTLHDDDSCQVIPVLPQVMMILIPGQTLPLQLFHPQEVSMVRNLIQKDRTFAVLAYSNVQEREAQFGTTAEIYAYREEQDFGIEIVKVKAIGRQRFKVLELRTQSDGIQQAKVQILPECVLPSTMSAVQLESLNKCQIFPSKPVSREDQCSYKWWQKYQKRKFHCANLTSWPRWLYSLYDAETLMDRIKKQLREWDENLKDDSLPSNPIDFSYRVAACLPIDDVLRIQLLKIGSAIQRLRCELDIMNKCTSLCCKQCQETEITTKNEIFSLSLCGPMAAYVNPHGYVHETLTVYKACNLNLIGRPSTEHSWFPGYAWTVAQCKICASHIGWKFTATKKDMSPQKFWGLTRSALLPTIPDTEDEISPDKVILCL
Experimental: The following method was used to generate lentiviral vectors for plasmids tested in library hit confirmation experiments: WT, QPIS, ANQS, APIS, HEIP, FEVP, WEIK, FDIP, AEVK, WNQS, WEIS, WNIQ, and WDIA. HEK293T cells were seeded into 6 well TC-treated cell culture dishes (Falcon) at 7×10^5 cells per well and incubated overnight at 37° C. and 5% CO2. […] In a separate tube 2 μL of PEIPro (Polyplus) was added to 100 μL of OptiMEM. The solution containing PEIPro and DNA was mixed and incubated at room temperature for 15 minutes to create the transfection mixture. The transfection mixture was added to cells and incubated for 5-6 hours at 37° C. and 5% CO2. After 2 days, the supernatant was harvested and fresh media was added to cells. 24 hours later, the supernatant was harvested and combined with the first supernatant harvested. Supernatant was centrifuged at 2000×g room temperature for 5 minutes, then the supernatant was filtered through a 0.45 μm cellulose acetate syringe filter and frozen at −80° C. […]
Jurkat cells were added to 96 well U-bottom assay plates (Falcon) at 1×10^5 cells per well and treated with compounds for 18 hours at 37° C. and 5% CO2. […] Data was analysed using FlowJo 10.8.1 (BD).
Having assessed the broad trends from this library screen, the sequences with the highest log FC values for A63 and B08 were selected and transduced into separate Jurkat cell lines. […]

[3] = biological target: wild-type IKZF1/IKZF3 ZF degron sequence (WT) fused to eGFP (Homo sapiens, UniProt Q96SW2+Q9UKT9); test: GFP degradation flow cytometry assay (GFP:mCherry ratio), WT ZF-eGFP; settings: for percent degradation of WT ZF-GFP at 10 µM: 18 h, Jurkat, flow cytometry concentration curve; for degradation ability against the WT ZF sequence: flow cytometry assay
Sequence of wild-type IKZF1/IKZF3 ZF degron sequence (WT) fused to eGFP (Q9UKT9 130-189): as the sequence (Q9UKT9 130-189 Q147W/N149E/Q150I) above, with W18Q, E20N, I21Q counted along it
Sequence of wild-type IKZF1/IKZF3 ZF degron sequence (WT) fused to eGFP (Q96SW2 whole entry, the tested form may be a part): as the sequence (Q96SW2 whole entry) above
Experimental: FIG. 2. A. A plasmid containing a ZF degron fused to GFP in the same gene as mCherry. Jurkats that have been lentivirally transduced with this plasmid will express ZF-GFP and mCherry at a consistent ratio. B Addition of an IMID such as pomalidomide will induce GFP degradation via the degron's functionality. C Incubation with an IMID produces a degradation curve.
Jurkat cells were added to 96 well U-bottom assay plates (Falcon) at 1×10^5 cells per well and treated with compounds for 18 hours at 37° C. and 5% CO2. Cells were stained with 1 μg/mL DAPI (ThermoFisher) and acquired on a Cytoflex S (Beckman Coulter). Data was analysed using FlowJo 10.8.1 (BD).
To test these compounds, we used a flow cytometry assay (FIG. 2) employing an Jurkat cells—an immortalised human blood cell line—that had been stably transduced with a plasmid using a lentiviral vector. This plasmid contained a gene for a 60 amino acid ZF region derived from IKZF3 fused to eGFP, separated from mCherry by an internal ribosomal entry site (IRES). This meant that these cells would express ZF-GFP and mCherry in consistent relative amounts, so under normal conditions the ratio of GFP:mCherry would remain the same regardless of overall expression levels. However, upon incubation with an IMID, ZF-GFP would be selectively degraded, altering this ratio and thus providing an easily measurable proxy for level of ZF degradation.
We carried out three biological replicates of this assay for each IMID analogue with a 0.1% DMSO control and six concentrations of IMID (1 nM, 10 nM, 100 nM, 1 μM, 10 μM and 100 μM) for each compound. This yielded a degradation curve for each compound, from which a pDC50 value could be derived, indicating how potent a degrader each of our compound were relative to thalidomide, lenalidomide and pomalidomide.

Sequence of endogenous IKZF3 in Jurkat cells (Q9UKT9 whole entry): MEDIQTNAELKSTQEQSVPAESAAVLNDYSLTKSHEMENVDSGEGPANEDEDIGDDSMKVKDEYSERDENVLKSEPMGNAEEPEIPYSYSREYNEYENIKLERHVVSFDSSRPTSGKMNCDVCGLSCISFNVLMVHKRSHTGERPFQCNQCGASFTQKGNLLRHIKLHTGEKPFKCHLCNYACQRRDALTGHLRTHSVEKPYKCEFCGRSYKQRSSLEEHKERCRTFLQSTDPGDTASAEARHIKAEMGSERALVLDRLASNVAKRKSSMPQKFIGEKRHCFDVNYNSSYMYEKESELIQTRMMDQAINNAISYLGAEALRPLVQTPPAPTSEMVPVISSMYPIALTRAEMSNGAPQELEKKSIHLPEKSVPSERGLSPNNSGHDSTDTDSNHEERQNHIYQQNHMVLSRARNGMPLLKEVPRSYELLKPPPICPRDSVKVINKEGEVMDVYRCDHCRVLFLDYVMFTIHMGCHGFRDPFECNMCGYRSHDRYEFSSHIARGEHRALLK
Sequence of endogenous IKZF3 in Jurkat cells (Q96SW2 whole entry): as the sequence (Q96SW2 whole entry) above

CN1CCN(c2ccc3c(c2)C(=O)N(C2CCC(=O)NC2=O)C3=O)CC1 (centres unmarked) [B08, 2-(2,6-dioxopiperidin-3-yl)-5-(4-methylpiperazin-1-yl)isoindoline-1,3-dione]
endogenous IKZF3 level relative to DMSO control (Western blot) [1]: unaffected
ability to degrade endogenous IKZF3 (Western blot) [1]: neither A63 nor B08 possess ability to degrade endogenous IKZF3
inhibition at up to 10 µM ([2]; 18 h, 10 μM, Jurkat, flow cytometry concentration curve, read-out: degradation of the top mutant ZF-GFP (WEIS)): ~100%
selectivity compared to the WT ZF (WEIS) ([2]; from pDC50 values, 12 concentrations 5 nM-10 μM): around 30 ×
percent degradation of WT ZF-GFP at 10 µM [3]: 60 to 70%
degradation ability against the WT ZF sequence [3]: some degradation ability

CC(C)(C)c1ccc2c(c1)C(=O)N(C1CCC(=O)NC1=O)C2=O (centres unmarked) [A63, 5-(tert-butyl)-2-(2,6-dioxopiperidin-3-yl)isoindoline-1,3-dione]
endogenous IKZF3 level relative to DMSO control (Western blot) [1]: unaffected
level of endogenous IKZF3 (Western blot) ([1]; 10 μM, Jurkats transduced with AEVK-GFP): remains unaffected
ability to degrade endogenous IKZF3 (Western blot) [1]: neither A63 nor B08 possess ability to degrade endogenous IKZF3
percent degradation of WT ZF-GFP at 10 µM [3]: 60 to 70%
degradation ability against the WT ZF sequence [3]: some degradation ability

From patent US20260284208A1, “SYSTEM” (Oxford University Innovation Limited, priority 2023, published 2026)
